In ChEMBL document CHEMBL3797164, “Transfer of SAR information from hypotensive indazole to indole derivatives acting at α-adrenergic receptors: In vitro and in vivo studies” (Eur J Med Chem, 2016):

Tests used:
[1] = target: T1, Adrenergic receptor alpha-1 (Rattus norvegicus, UniProt P15823+P23944+P43140); assay: Displacement of [3H]prazosine from Alpha-1 adrenergic receptor in Sprague-Dawley rat brain P2 membranes after […] by liquid scintillation counting
T1 sequence (P15823 whole entry): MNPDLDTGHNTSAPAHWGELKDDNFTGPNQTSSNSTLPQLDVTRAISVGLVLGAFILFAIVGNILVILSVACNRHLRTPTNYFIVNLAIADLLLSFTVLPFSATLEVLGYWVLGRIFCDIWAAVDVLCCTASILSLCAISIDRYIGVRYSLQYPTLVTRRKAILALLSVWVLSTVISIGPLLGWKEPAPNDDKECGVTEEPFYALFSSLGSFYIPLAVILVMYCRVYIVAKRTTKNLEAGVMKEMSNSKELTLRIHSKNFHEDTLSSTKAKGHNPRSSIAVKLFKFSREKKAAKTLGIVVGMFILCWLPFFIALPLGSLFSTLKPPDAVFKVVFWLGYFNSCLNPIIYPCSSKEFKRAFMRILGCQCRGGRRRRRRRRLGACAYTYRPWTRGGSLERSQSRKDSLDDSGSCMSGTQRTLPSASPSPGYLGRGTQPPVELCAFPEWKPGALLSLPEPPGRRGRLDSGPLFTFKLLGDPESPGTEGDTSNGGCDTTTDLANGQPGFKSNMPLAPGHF
T1 sequence (P23944 whole entry): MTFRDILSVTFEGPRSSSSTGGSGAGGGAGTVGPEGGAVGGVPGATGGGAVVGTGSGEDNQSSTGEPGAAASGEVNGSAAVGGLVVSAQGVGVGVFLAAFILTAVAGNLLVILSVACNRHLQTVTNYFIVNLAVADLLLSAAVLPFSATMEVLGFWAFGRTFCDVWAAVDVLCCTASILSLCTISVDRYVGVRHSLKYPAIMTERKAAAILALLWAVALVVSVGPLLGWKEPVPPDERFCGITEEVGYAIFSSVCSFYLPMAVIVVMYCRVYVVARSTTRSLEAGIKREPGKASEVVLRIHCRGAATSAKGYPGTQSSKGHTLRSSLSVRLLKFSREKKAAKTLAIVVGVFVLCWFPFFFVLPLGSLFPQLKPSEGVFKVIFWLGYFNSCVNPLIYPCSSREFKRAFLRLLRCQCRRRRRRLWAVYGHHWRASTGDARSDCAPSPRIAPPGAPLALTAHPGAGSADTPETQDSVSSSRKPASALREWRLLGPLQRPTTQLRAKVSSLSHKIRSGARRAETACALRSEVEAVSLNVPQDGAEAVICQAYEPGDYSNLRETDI
T1 sequence (P43140 whole entry): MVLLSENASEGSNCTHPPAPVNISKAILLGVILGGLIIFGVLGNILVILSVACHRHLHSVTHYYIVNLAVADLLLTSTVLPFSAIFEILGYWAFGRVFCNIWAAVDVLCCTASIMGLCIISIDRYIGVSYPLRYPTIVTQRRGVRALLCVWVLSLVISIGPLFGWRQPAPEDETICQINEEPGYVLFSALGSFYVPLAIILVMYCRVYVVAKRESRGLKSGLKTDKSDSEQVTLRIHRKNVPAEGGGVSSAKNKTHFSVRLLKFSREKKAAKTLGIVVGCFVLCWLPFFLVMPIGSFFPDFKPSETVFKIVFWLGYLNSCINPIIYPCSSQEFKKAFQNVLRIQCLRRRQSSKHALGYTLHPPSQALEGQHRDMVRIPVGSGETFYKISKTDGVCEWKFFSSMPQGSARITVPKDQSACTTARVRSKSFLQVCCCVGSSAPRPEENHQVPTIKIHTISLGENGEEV

Nischarin = Nischarin (Rattus norvegicus, UniProt Q4G017); assay: Displacement of [3H]clonidine from Imidazoline receptor 1 in Sprague-Dawley rat kidney P2 membranes after […] by liquid scintillation counting
Rattus norvegicus [2] = assay: Antihypertensive activity in anesthetized Wistar rat assessed as change in mean arterial blood pressure at 0.1 mg/kg, iv administered as bolus dose after 60 mins (reference value: -3.5 mmHg); type: functional
Rattus norvegicus [3] = assay: Antihypertensive activity in anesthetized Wistar rat assessed as change in mean arterial blood pressure at 0.1 mg/kg, iv administered as bolus dose after 5 mins (reference value: 0.4 mmHg); type: functional
Rattus norvegicus [4] = assay: Antihypertensive activity in anesthetized Wistar rat assessed as change in mean arterial blood pressure at 0.1 mg/kg, iv administered as bolus dose after 30 mins (reference value: -1.3 mmHg); type: functional

Nischarin, sequence (Q4G017 whole entry): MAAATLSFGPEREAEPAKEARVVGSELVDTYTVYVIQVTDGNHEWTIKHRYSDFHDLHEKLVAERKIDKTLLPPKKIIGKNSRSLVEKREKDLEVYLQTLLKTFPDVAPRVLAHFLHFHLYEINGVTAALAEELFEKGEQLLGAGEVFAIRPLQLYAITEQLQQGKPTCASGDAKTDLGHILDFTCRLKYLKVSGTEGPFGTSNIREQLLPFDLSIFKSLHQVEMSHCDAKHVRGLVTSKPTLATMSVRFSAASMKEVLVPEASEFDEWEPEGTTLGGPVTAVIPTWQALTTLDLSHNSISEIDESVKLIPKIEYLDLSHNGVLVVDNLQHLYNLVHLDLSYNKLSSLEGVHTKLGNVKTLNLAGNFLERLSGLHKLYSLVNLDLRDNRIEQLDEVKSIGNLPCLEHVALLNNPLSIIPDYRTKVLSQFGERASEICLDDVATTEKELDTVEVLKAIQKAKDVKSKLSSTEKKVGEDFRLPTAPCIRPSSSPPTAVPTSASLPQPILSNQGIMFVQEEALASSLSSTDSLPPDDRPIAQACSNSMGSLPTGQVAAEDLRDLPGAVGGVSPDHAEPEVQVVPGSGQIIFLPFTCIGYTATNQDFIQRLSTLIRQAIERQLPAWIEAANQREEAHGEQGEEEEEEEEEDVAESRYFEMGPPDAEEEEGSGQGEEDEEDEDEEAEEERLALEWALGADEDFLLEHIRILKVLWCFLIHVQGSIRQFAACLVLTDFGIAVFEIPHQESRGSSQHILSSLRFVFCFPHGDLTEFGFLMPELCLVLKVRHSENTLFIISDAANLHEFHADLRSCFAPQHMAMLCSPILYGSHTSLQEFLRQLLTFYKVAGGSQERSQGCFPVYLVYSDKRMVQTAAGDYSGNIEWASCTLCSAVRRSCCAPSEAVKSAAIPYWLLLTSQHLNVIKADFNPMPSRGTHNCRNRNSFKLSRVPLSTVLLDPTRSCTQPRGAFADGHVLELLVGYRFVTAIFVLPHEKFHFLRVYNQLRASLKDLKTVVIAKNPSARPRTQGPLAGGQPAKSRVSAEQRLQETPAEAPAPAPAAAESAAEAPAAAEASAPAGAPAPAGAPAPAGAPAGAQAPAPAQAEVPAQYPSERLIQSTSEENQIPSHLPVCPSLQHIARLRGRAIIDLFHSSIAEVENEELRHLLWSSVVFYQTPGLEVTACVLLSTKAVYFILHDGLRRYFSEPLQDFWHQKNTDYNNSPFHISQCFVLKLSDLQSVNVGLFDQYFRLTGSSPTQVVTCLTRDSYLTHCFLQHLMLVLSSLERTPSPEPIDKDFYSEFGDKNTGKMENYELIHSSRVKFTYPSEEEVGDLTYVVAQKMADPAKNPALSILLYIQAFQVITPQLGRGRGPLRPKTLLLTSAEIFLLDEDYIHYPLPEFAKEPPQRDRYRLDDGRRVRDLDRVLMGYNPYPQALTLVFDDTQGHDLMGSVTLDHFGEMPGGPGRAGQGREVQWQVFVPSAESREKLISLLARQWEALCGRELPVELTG

## Cl.c1ccc2c(c1)ccn2CC1=NCCN1
[1]
  Ki: 61.4 nM
Nischarin
  Ki: 81400 nM
Rattus norvegicus [2]
  Activity: -38.5 mmHg
Rattus norvegicus [3]
  Activity: 33.7 mmHg
Rattus norvegicus [4]
  Activity: -27.9 mmHg

## Br.Cc1cccc2ccn(CC3=NCCN3)c12
[1]
  Ki: 24.97 nM
Nischarin
  Ki: 1000 nM
Rattus norvegicus [2]
  Activity: -40.9 mmHg
Rattus norvegicus [3]
  Activity: -4.2 mmHg
Rattus norvegicus [4]
  Activity: -46.5 mmHg

## Cl.Clc1cccc2ccn(CC3=NCCN3)c12
[1]
  Ki: 6.82 nM
Nischarin
  Ki: 10300 nM
Rattus norvegicus [2]
  Activity: -61.2 mmHg
Rattus norvegicus [3]
  Activity: 7.4 mmHg
Rattus norvegicus [4]
  Activity: -56.1 mmHg
